Experiment [1] relates to polyvinylchloride sponge disc implants (wound healing). The experiment in a line: Wound breaking strength of rejoined sponge disc halves implanted in rats. It counts as in vivo, rat. Particulars: at seven days, control group 440 g. The source says:
(§1) Twenty-two male rats weighing between 300 g and 325 g were anesthetized, after which their backs and abdomens were shaved and washed with 70% ethanol. Three modified polyvinylchloride sponge discs 2 mm thick and 15 mm in diameter were implanted in each rat abdominally in subcutaneous pockets made under the skin. Two of the implants were cut in half and rejoined before the implantation, and the remaining disc was sandwiched between two silicone discs which forced granulation tissue infiltration to occur from the periphery of the disc. A single 15 mm×15 mm square full excision wound was made on the back and the wound edges tattooed.
(§2) The rats were then divided into four groups. A first, or control, group of four rats received sham injections daily. A second group of four rats received daily intramuscular injections of 10 mg of cortisone acetate. Cortisone is known to be an inhibitor of wound healing. A third group of seven rats received daily intramuscular injections of 0.3 mg of amide-terminated Magainin II. A fourth group of seven rats received daily intramuscular injections of 10 mg of cortisone acetate and 0.3 mg of Magainin II at separate sites. At seven days, rat weights were recorded, wound sizes measured, and the implants harvested. The staple which joined the two disc halves together was carefully removed and the breaking strength measured. Collagen content from the implant halves from each treatment group was measured by weighing the pepsin extracted native collagen. The sponge halves are homogenized in 0.5M ice-cold acetic acid containing 0.1 mg of pepsin per ml. The homogenate was stirred for 24 hours at 4° C., centrifuged, and supernatants saved. The native solubilized collagen was isolated by adding sodium chloride to 10 % w/v. The salt precipitate was collected by centrifugation (10,000× g for 10 min.) and then taken up in 145 mM potassium phosphate buffer pH7.6, exhaustively dialyzed against 1 mM HCl, lyophilized and its dry weight recorded. Confirmation of collagen purity was made by SDS polyacrylamide gel electrophoresis. […]

In the next experiment the test system is full excision wound. The experiment in a line: Wound contraction of 15 mm x 15 mm square full excision wound on the back of rats. The format is in vivo, rat. The settings on record: for average wound contraction: at seven days, control group 67%.
From the text: as §1
The rats were then divided into four groups. A first, or control, group of four rats received sham injections daily. A second group of four rats received daily intramuscular injections of 10 mg of cortisone acetate. Cortisone is known to be an inhibitor of wound healing. A third group of seven rats received daily intramuscular injections of 0.3 mg of amide-terminated Magainin II. A fourth group of seven rats received daily intramuscular injections of 10 mg of cortisone acetate and 0.3 mg of Magainin II at separate sites. At seven days, rat weights were recorded, wound sizes measured, and the implants harvested. The staple which joined the two disc halves together was carefully removed and the breaking strength measured. Collagen content from the implant halves from each treatment group was measured by weighing the pepsin extracted native collagen. The sponge halves are homogenized in 0.5M ice-cold acetic acid containing 0.1 mg of pepsin per ml. The homogenate was stirred for 24 hours at 4° C., centrifuged, and supernatants saved. The native solubilized collagen was isolated by adding sodium chloride to 10 % w/v. The salt precipitate was collected by centrifugation (10,000× g for 10 min.) and then taken up in 145 mM potassium phosphate buffer pH7.6, exhaustively dialyzed against 1 mM HCl, lyophilized and its dry weight recorded. Confirmation of collagen purity was made by SDS polyacrylamide gel electrophoresis. Pepsin digestion extracts only native collagen, needed for the formation of collagen fibers. The accumulations of collagen in the early stages of healing are responsible for gain in wound tensile strength. Collagen content from the implants taken from the group treated with cortisone acetate alone averged 0.82 mg/sponge, as compared with 3.43 mg/sponge for the control group.

For experiment [2], the system named is polyvinylchloride sponge disc implants (wound healing). The experiment in a line: Collagen content of subcutaneous polyvinylchloride sponge disc implants in rats (pepsin extracted native collagen). It counts as in vivo, rat. Particulars: at seven days, control group 3.43 mg/sponge.
From the text: as §1, §2

Experiment [3] concerns cortisone inhibition of wound healing. Particulars: antagonism of cortisone-inhibited wound healing; cited from earlier work.
The mark [4] stands for this setting: cortisone acetate alone, 10 mg daily intramuscular.
Where [5] appears, read: 0.3 mg Magainin II plus 10 mg cortisone acetate daily intramuscular at separate sites.
[6] abbreviates: Magainin II alone, 0.3 mg daily intramuscular.

No end group written: not given here.

In the case of `CC(=O)OCC(=O)[C@@]1(O)CC[C@H]2[C@@H]3CCC4=CC(=O)CC[C@]4(C)[C@H]3C(=O)C[C@@]21C` [cortisone acetate], the “average wound breaking strength” value in experiment [1] (setting [4]) was 195 g. The average wound contraction in the experiment on full excision wound (setting [4]) was 28%. In addition, the average collagen content in experiment [2] (setting [4]) is 0.82 mg/sponge.

Turning to “GIGKFLHSAKKFGKAFVGEIMNS-NH2 [Magainin II]”, the “average wound breaking strength” value in experiment [1] (setting [5]) turned out to be 320 g; in experiment [1] (setting [6]), 415 g. Also, the average wound contraction in the experiment with full excision wound (setting [5]) was 53%; in the experiment on full excision wound (setting [6]), 65%. In addition, the “effect on cortisone inhibition of wound healing (collagen deposition and wound contraction)” value with full excision wound (rats given cortisone acetate and Magainin II, conclusion in words) was “antagonistic of cortisone inhibition of wound healing”. Besides, the average collagen content in experiment [2] (setting [5]) was 3.20 mg/sponge; in experiment [2] (setting [6]) it was 3.82 mg/sponge.

For Vitamin A, in experiment [3], the “restoring connective tissue deposition” value is reported as “effective in restoring connective tissue deposition” and the restoring wound contraction entry is listed as “ineffective in restoring wound contraction”.

For the molecule “growth hormone: other antagonist of cortisone inhibition of wound healing”, in experiment [3], the “restoring connective tissue deposition” value was “effective in restoring connective tissue deposition” and the restoring wound contraction result is recorded as “ineffective in restoring wound contraction”.

The record behind these values is US5045531A, “Wound treatment employing biologically active ion channel forming peptides and proteins” (Magainin Sciences Inc., priority 1989, dated 1991).
